The text below walks through data of ChEMBL document CHEMBL1201862, “PubChem BioAssay data set” (2004).

Several values for one entry are separate records, joined by “and”; a condition that tells them apart may be missing. Equal values may be shown once.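 Dose response: 5 concentrations. Exposure: 48 h. Format: 96-well plates. Endpoint: linear interpolation; highest concentration if not reached. GI50 marks 50% less growth.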 Activity calls are given as the source filed them. No stated cut-off is given here; in the data, active = GI50 up to about 1.1 µM and inactive = higher.

Test systems include 786-0; A498; COLO 205; DU-145; HOP-62; K562; LOX IMVI; NCI-H226; NCI-H460; OVCAR-3; OVCAR-8; RPMI-8226; SK-OV-3; SNB-19; SNB-75; SW-620; TK-10; U-251; UACC-62; RXF 393.
What all share (experiment): growth of human tumour cells (NCI), 48 h

In the case of `COC(=O)C1=C(C(=O)NNc2ccccc2)N(c2cccnc2Cl)C(c2ccccc2)=CC1c1ccccc1` (configuration not stated), the GI50 is 86.3 µM (inactive) with 786-0; > 100 µM (inactive) with A498; 66.7 µM (inactive) in the experiment on COLO 205; 80.9 µM (inactive) in the experiment on DU-145; > 100 µM (inactive) in the experiment with HOP-62; 20 µM (inactive) with K562. Besides, the GI50 was 30.5 µM (inactive) in the experiment with LOX IMVI; > 100 µM (inactive) in the experiment on NCI-H226; 65.2 µM (inactive) with NCI-H460; 31.7 µM (inactive) in the experiment on OVCAR-3; > 100 µM (inactive) in the experiment on OVCAR-8; 14.1 µM (inactive) in the experiment on RPMI-8226. In addition, the GI50 is > 100 µM (inactive) with SK-OV-3; > 100 µM (inactive) in the experiment on SNB-19; > 100 µM (inactive) in the experiment on SNB-75; 31.6 µM (inactive) in the experiment on SW-620; 54.6 µM (inactive) in the experiment with TK-10; 47.1 µM (inactive) in the experiment on U-251. The GI50 in the experiment on UACC-62 was 57.7 µM (inactive).
Turning to `CC(=O)N1C(C(=O)NNc2ccccc2)CSC1c1ccccc1` (configuration not stated), the GI50 with 786-0 is > 100 µM (inactive); with A498 it was > 100 µM (inactive); in the experiment with COLO 205, 64.9 µM (inactive); with DU-145, > 100 µM (inactive); with HOP-62, > 100 µM (inactive); in the experiment on K562 it was 3.42 µM (inactive). Besides, the GI50 is 3.16 µM (inactive) with LOX IMVI; > 100 µM (inactive) with NCI-H226; > 100 µM (inactive) in the experiment with NCI-H460; 58.2 µM (inactive) with OVCAR-3; > 100 µM (inactive) with OVCAR-8; 37.8 µM (inactive) in the experiment on RPMI-8226. Further, the GI50 in the experiment with SK-OV-3, with SNB-19, in the experiment on SNB-75, in the experiment on SW-620, with TK-10 and in the experiment with U-251 was > 100 µM (inactive) throughout. The GI50 with UACC-62 was 1.39 µM (inactive).
Turning to `COC(=O)C1CCC(=O)N1CN(C(C)=O)c1ccccc1` (configuration not stated), the GI50 with 786-0, in the experiment with A498, in the experiment with COLO 205, in the experiment with DU-145, in the experiment with HOP-62 and in the experiment on K562 was > 100 µM (inactive) in each case. Moreover, the GI50 with LOX IMVI, in the experiment on NCI-H226, in the experiment with NCI-H460, in the experiment on OVCAR-3, in the experiment on OVCAR-8 and in the experiment with RPMI-8226 was > 100 µM (inactive) each time. Moreover, the GI50 in the experiment with SK-OV-3, with SNB-19, in the experiment with SNB-75, in the experiment with SW-620, in the experiment on TK-10 and in the experiment with U-251 was > 100 µM (inactive) each time. Moreover, in the experiment on UACC-62, the GI50 is > 100 µM (inactive).
Take `O=c1cc(C(F)(F)F)c2cc3c(cc2o1)NCCC3`: the GI50 is 35.2 µM (inactive) in the experiment on 786-0; > 100 µM (inactive) with A498; > 100 µM (inactive) in the experiment with COLO 205; > 100 µM (inactive) in the experiment with DU-145; 17.1 µM (inactive) with HOP-62; > 100 µM (inactive) with K562. In addition, the GI50 in the experiment on LOX IMVI was > 100 µM (inactive); in the experiment on NCI-H226 it was > 100 µM (inactive); in the experiment with NCI-H460, > 100 µM (inactive); with OVCAR-3, > 100 µM (inactive); in the experiment on OVCAR-8 it was 42.2 µM (inactive); in the experiment on RPMI-8226, > 100 µM (inactive). The GI50 in the experiment with RXF 393 was < 0.01 µM (active); in the experiment with SNB-19, 23 µM (inactive); in the experiment with SW-620, > 100 µM (inactive); in the experiment on TK-10 it was > 100 µM (inactive); in the experiment on U-251, 23.1 µM (inactive).
Turning to `Cc1c(Cl)cccc1NC(=O)CC1Sc2ccccc2NC1=O` (configuration not stated), the GI50 in the experiment with 786-0 is 24 µM (inactive) and 17.4 µM (inactive); in the experiment on A498 it was 18.3 µM (inactive) and 16.5 µM (inactive); in the experiment with COLO 205, 46.3 µM (inactive) and 31.4 µM (inactive); with DU-145, 53.7 µM (inactive); in the experiment with HOP-62, 10.1 µM (inactive) and 18.2 µM (inactive); in the experiment on K562, 6.59 µM (inactive) and 6.53 µM (inactive). The GI50 was 24.8 µM (inactive) and 33.8 µM (inactive) with LOX IMVI; 19.1 µM (inactive) and 17.9 µM (inactive) in the experiment with NCI-H226; 22.4 µM (inactive) and 23.2 µM (inactive) in the experiment on NCI-H460; 15.3 µM (inactive) and 17.9 µM (inactive) in the experiment with OVCAR-3; 16.4 µM (inactive) and 20.8 µM (inactive) in the experiment with OVCAR-8; 23.9 µM (inactive) and 32.4 µM (inactive) with RPMI-8226. Further, the GI50 with RXF 393 is 8.39 µM (inactive) and 16 µM (inactive); with SK-OV-3 it was 16.4 µM (inactive) and 19.3 µM (inactive); with SNB-19, 19.4 µM (inactive) and 20.1 µM (inactive); in the experiment with U-251 it was 14.7 µM (inactive) and 17.3 µM (inactive).
For the compound `COc1ccc(NC(=O)Oc2cc(C)c3ccc(=O)cc-3o2)c(OC)c1.COc1ccc(NC(=O)Oc2ccc3c(C)cc(=O)oc3c2)c(OC)c1`, the GI50 is > 100 µM (inactive) in the experiment on 786-0; 31.9 µM (inactive) in the experiment with A498; > 100 µM (inactive) with COLO 205; > 100 µM (inactive) with DU-145; > 100 µM (inactive) in the experiment with HOP-62; > 100 µM (inactive) in the experiment with NCI-H226. In addition, the GI50 in the experiment with NCI-H460, with OVCAR-3, in the experiment on OVCAR-8, with RPMI-8226, in the experiment with RXF 393 and with SK-OV-3 was > 100 µM (inactive) throughout. In addition, the GI50 in the experiment with SNB-19, in the experiment on SW-620, in the experiment on TK-10, with U-251 and in the experiment with UACC-62 was > 100 µM (inactive) each time.
On to `N=C(N)C1CN(CC=O)C(=O)NC1=O` (configuration not stated), for which the GI50 with 786-0, in the experiment on A498, with COLO 205, in the experiment on DU-145, with HOP-62 and in the experiment on K562 was > 100 µM (inactive) throughout. Besides, the GI50 in the experiment on LOX IMVI, in the experiment on NCI-H226, with NCI-H460, with OVCAR-3, with OVCAR-8 and with RPMI-8226 was > 100 µM (inactive) in each case. Also, the GI50 in the experiment with SK-OV-3, in the experiment on SNB-19, in the experiment on SNB-75, in the experiment on SW-620, in the experiment with TK-10 and in the experiment with U-251 was > 100 µM (inactive) throughout. In the experiment on UACC-62, the GI50 is > 100 µM (inactive).
Regarding `O=C(Nc1ccc(Cl)cc1Cl)c1cc2nc3ccccc3c(=O)n2c2ccccc12`, the GI50 in the experiment with 786-0, with A498, with DU-145, with HOP-62, with K562 and in the experiment with LOX IMVI was > 10 µM (inactive) throughout. Further, the GI50 with NCI-H460, in the experiment with OVCAR-3, with OVCAR-8, in the experiment with RXF 393, with SK-OV-3 and with SNB-19 was > 10 µM (inactive) throughout. The GI50 in the experiment with SW-620, in the experiment with TK-10, with U-251 and with UACC-62 was > 10 µM (inactive) throughout.
